From US7795381B2, “Methods and materials for cancer treatment” (Mayo Foundation for Medical Education and Research, priority 2001, dated 2010) come the findings set out here.

What all share (assay type): cell-based, human
For data set [1], the system named is melanoma tumor cells or tumor lysates presented by APC. Nature of the data set: Recognition of naturally processed antigen by polypeptide-reactive HTL (proliferation, GM-CSF/IFN-γ ELISA). The settings on record: for HTL recognition of melanoma tumor cell lysates presented by autologous APC / HTL recognition of antigen presented directly by intact melanoma cells: HLA-DR7-restricted HTL lines; for HTL recognition of melanoma tumor cell lysates presented by autologous APC: 697 mel lysate; for HTL recognition of antigen presented directly by intact melanoma cells: HLA-DR7+ melanoma (HT-144); for recognition of naturally processed antigen by HTL reactive to the polypeptide: MHC class II positive melanomas or APC fed with tumor lysates. The text has this: Recognition of naturally processed antigen by polypeptide-reactive T-cells can be an important parameter to determine whether a predicted T-cell epitope can be used to elicit an immune response against tumor cells. HTL may recognize polypeptide/MHC class II complexes directly on tumor cells that are MHC class II positive and as a consequence the T-cells will become activated and produce cytokines that provide help to CTL or cytokines that may inhibit tumor cell growth.
(§1) T cells (3×10^4/well) were mixed with irradiated APC in the presence of various concentrations of antigen (polypeptides, tumors or tumor lysates), in 96-well culture plates. APC consisted of either PBMC (1×10^5/well), HLA-DR-expressing L-cells (3×10^4/well), EBV-LCL or melanoma tumor cells (3×10^4/well), pretreated with IFN-γ (500 U/ml for 48 h) to enhance MHC expression. Proliferation assays were incubated at 37° C. in a 5% CO2 incubator for 72 h and during the last 16 h, each well was pulsed with 0.5 μCi/well of [^3H]-thymidine (Amersham Pharmacia Biotech, Piscataway, N.J.). In some cases, culture supernatants were collected before the addition of [^3H]-thymidine for the determination of lymphokine production using ELISA kits (Pharmingen, San Diego, Calif.). The radioactivity incorporated into DNA, which correlates with cell proliferation, was measured in a liquid scintillation counter after harvesting the cell cultures onto glass fiber filters. […] The stimulation index (SI) was calculated by dividing the mean radioactivity (cpm) obtained in the presence of antigen by the mean radioactivity (cpm) obtained in the absence of antigen but in the presence of APC.

Data set [2] concerns CD4+ T cells (HTL lines). Nature of the data set: T-cell proliferative response to polypeptide, dose curve ([3H]-thymidine). As to conditions: for polypeptide concentration required to obtain 50% of the maximal proliferation: HLA-DR7-restricted HTL lines, polypeptide presented by autologous PBMC. On the procedure: Polypeptides gp10074-89, gp100175-189 and gp100576-590 were tested for their capacity to stimulate CD4^+ T cells obtained from four healthy, MHC-typed individuals in primary in vitro cultures using polypeptide-pulsed autologous dendritic cells (DC). The method used to generate tumor antigen-reactive HTL lines and clones using polypeptide-stimulated peripheral blood mononuclear cells (PBMC) was recently described in detail (Kobayashi H et al., Cancer Res 60:5228 (2000)). Briefly, DC were generated in tissue culture from adherent monocytes that were cultured for 7 days in the presence of GM-CSF and IL-4. A total of (1×10^4) polypeptide-pulsed DC (10 μg/ml for 2 hr) were irradiated (4,200 rad) and co-cultured with 3×10^4 autologous purified CD4^+ T cells (using magnetic microbeads from Miltenyi Biotech) in each well of a 96-round bottom well culture plate. Seven days later, the cultures were restimulated with polypeptide-pulsed irradiated autologous PBMC and two days later, human rIL-2 was added at a final concentration of 10 IU/ml. After 7 days, the microcultures were tested for their proliferative responses to polypeptide as described below. Those micro-wells showing a proliferative response to polypeptide (at least 2.5 fold over background) were expanded in 24 or 48-well plates by weekly restimulation with polypeptides and irradiated autologous PBMC. In some instances T-cell lines were cloned by limiting dilution and used for further studies. […]
T cells (3×10^4/well) were mixed with irradiated APC in the presence of various concentrations of antigen (polypeptides, tumors or tumor lysates), in 96-well culture plates. […] The radioactivity incorporated into DNA, which correlates with cell proliferation, was measured in a liquid scintillation counter after harvesting the cell cultures onto glass fiber filters. […] The stimulation index (SI) was calculated by dividing the mean radioactivity (cpm) obtained in the presence of antigen by the mean radioactivity (cpm) obtained in the absence of antigen but in the presence of APC.

The subject of data set [3] is CD4+ T cells (HTL lines). Nature of the data set: MHC restriction analysis of HTL proliferative response (anti-HLA-DR/-DQ blocking, HLA-transfected L-cells, LCL). As to conditions: for ability to trigger HTL restricted by other alleles such as HLA-DR1 or -DR4: 2 experiments with cells from 2 donors; for MHC restriction of the induced CD4+ T-cell (HTL) proliferative response: anti-DR/anti-DQ antibody blocking, HLA-transfected L-cells, allogeneic LCL. The protocol: Polypeptides gp10074-89, gp100175-189 and gp100576-590 were tested for their capacity to stimulate CD4^+ T cells obtained from four healthy, MHC-typed individuals in primary in vitro cultures using polypeptide-pulsed autologous dendritic cells (DC). The method used to generate tumor antigen-reactive HTL lines and clones using polypeptide-stimulated peripheral blood mononuclear cells (PBMC) was recently described in detail (Kobayashi H et al., Cancer Res 60:5228 (2000)). Briefly, DC were generated in tissue culture from adherent monocytes that were cultured for 7 days in the presence of GM-CSF and IL-4. A total of (1×10^4) polypeptide-pulsed DC (10 μg/ml for 2 hr) were irradiated (4,200 rad) and co-cultured with 3×10^4 autologous purified CD4^+ T cells (using magnetic microbeads from Miltenyi Biotech) in each well of a 96-round bottom well culture plate. Seven days later, the cultures were restimulated with polypeptide-pulsed irradiated autologous PBMC and two days later, human rIL-2 was added at a final concentration of 10 IU/ml. After 7 days, the microcultures were tested for their proliferative responses to polypeptide as described below. Those micro-wells showing a proliferative response to polypeptide (at least 2.5 fold over background) were expanded in 24 or 48-well plates by weekly restimulation with polypeptides and irradiated autologous PBMC. In some instances T-cell lines were cloned by limiting dilution and used for further studies. Culture medium for all procedures consisted of RPMI-1640 supplemented with 5% human male AB serum, 0.1 mM MEM nonessential amino acids, 1 mM sodium pyruvate, 2 mM L-glutamine, and 50 μg/ml gentamicin.
as §1, with “In some cases, culture supernatants were collected before the addition of [^3H]-thymidine for the determination of lymphokine production using ELISA kits (Pharmingen, San Diego, Calif.).” left out

The next data set has as its system melanoma cells. Nature of the data set: Antigen-specific cytotoxicity, JAM assay. The settings on record: HLA-DQw6-restricted HTL; DQw6 positive melanoma cell line (1102 mel). On the procedure:
The capacity of HTL lines and clones to kill tumor cells expressing the appropriate polypeptide/MHC complexes was evaluated using the JAM assay (Matzinger P, J Immunol Methods 145:185 (1991)), which measures the DNA retained by target living cells after incubation with effector T-cells. Briefly, target cells were labeled with of [^3H]-thymidine for 18 hrs in tissue culture. After washing and counting the cells, they were incubated at various effectors to target ratio in 96-well round-bottomed plates for 36 hours. The cultures were then harvested onto glass fiber filters, and the amount of radioactivity retained in DNA is measured in a scintillation counter. The percent cytotoxicity was calculated by the ratio of cpm obtained in the absence of T-cells over the cpm obtained in the presence of different amounts of T-cells X 100. All determinations were done in triplicates.

For data set [4], the system named is PBMC from normal individuals. As to the kind of experiment: In vitro immunization of PBMC using polypeptide-pulsed DC (CTL induction). The source says: See, Manici et al., J Exp Med 189:871 (1999); Fujita et al., Eur J Immunol 28:305 (1998); Zarour et al., Cancer Res 60:4946 (2000); Touloukian et al., J Immunol 164:3535 (2000); Zarour et al., Proc Natl Acad Sci USA 97:400 (2000); Yasukawa et al., Blood 92:3355 (1998).

Entries after “also recorded” stand apart in the source; their conditions may differ. No end group written: not given here.

On to GPTLIGANASFSIALN [gp10074-89], for which, in data set [1], the “HTL recognition of melanoma tumor cell lysates presented by autologous APC” value is “efficient at recognizing tumor cell lysates”, the “HTL recognition of antigen presented directly by intact melanoma cells” value is on record as “effective in recognizing antigen” and the “recognition of naturally processed antigen by HTL reactive to the polypeptide” value is recorded as “can recognize naturally processed antigen; also recorded: capable of recognizing naturally processed antigen”. Also, the “polypeptide concentration required to obtain 50% of the maximal proliferation” value in the data set with CD4+ T cells (HTL lines) [2] is around 0.6 µg/mL. In the data set on CD4+ T cells (HTL lines) [3], the “ability to trigger HTL restricted by other alleles such as HLA-DR1 or -DR4” value is “not able to trigger” and the “MHC restriction of the induced CD4+ T-cell (HTL) proliferative response” value was “restricted by the HLA-DR7 allele”.
“GRAMLGTHTMEVTVY [gp100175-189, GRAMLGTHTMEVTVY]”: the “cytotoxicity of polypeptide-reactive HTL” value in the data set on melanoma cells was “high levels of cytotoxicity”.
For SLAVVSTQLIMPGQE [gp100576-590], in data set [1], the “HTL recognition of melanoma tumor cell lysates presented by autologous APC” value is given as “could not be detected”, the “HTL recognition of antigen presented directly by intact melanoma cells” value was “could not be detected” and the “recognition of naturally processed antigen by HTL reactive to the polypeptide” value is “did not proliferate or produce lymphokines”. In the data set on CD4+ T cells (HTL lines) [2], the “polypeptide concentration required to obtain 50% of the maximal proliferation” value is around 0.04 µg/mL. For the same substance, in the data set on CD4+ T cells (HTL lines) [2] (by amount of polypeptide required to achieve 50% of maximal proliferative response), the “affinity of T-cell response, higher than the response to polypeptide gp10074-89” value is recorded as around 15 fold. Also, in the data set on CD4+ T cells (HTL lines) [3], the “ability to trigger HTL restricted by other alleles such as HLA-DR1 or -DR4” value is given as “not able to trigger” and the “MHC restriction of the induced CD4+ T-cell (HTL) proliferative response” value is recorded as “restricted by the HLA-DR7 allele”.
For the substance “gp100177-186: potent HLA-A2-restricted CTL epitope included in polypeptide gp100175-189 (AMLGTHTMEV; UniProt P40967 177-186, looked up, fragment)”, in data set [4], the “induction of anti-tumor CTL responses” value is “very effective in inducing anti-tumor CTL responses”.
